Experimental data: US20220296535A1, “Antibacterial Dosage Regime Using Cannabinoids” (Botanix Pharmaceuticals Limited, priority 2019, published 2022)
In brackets after ≈: the same amount, converted by molar mass. Several values for one entry are separate records, joined by “and”; a condition that tells them apart may be missing. Equal entries are not always repeated.

Assays:
Type in all cases: cell-based
[1] = tested on: Staphylococcus aureus MRSA ATCC 43300 biofilm; test: Biofilm minimum inhibitory concentration (Biofilm MIC), crystal violet OD590
Experimental: The collaborator supplied sample as dry material. A stock solution at 10 mg/mL in neat DMSO (11.2 mg in 1.12 mL of DMSO) was prepared. The highest concentration tested in the assay was 128 μg/mL and 2% DMSO as a final concentration using 1/20 dilution to achieve these concentrations.
Bacteria (Staphylococcus aureus, ATCC 43300; MRSA) was cultured on Tryptic Soy Broth (TSB, BD, Cat. No. 211825) at 37° C. overnight, then it was diluted 1:100 in fresh TSB supplemented with 5% glucose. 100 μL were added across the 96-well of polystyrene (PS) (Corning; Cat. No. 3370) plate, leaving row H as media Control. Plates were incubated at 37° C. for 48 h to generate the biofilm. The plates were prepared in duplicate.
The antibiotic controls and CBD were serially diluted in TSB with 5% glucose two-fold across the wells of polystyrene (PS) 96-well plates (Corning; Cat. No. 3370), plated in duplicate. All plates had flat bottom wells and were covered with low-evaporation lids.
48 h after incubation, bacteria plates were carefully washed three times with 200 μL/well of saline solution (0.9% NaCl, Baxter Healthcare; Cat. No. AHF7124) using manual pipette to remove the planktonic cells but leave the biofilm adhered to the plate wells. Then, 100 μL of diluted controls and CBD were transferred into the washed plates containing the biofilm. Then, these plates were incubated at 37° C. for 24 h.
Next day, plates were washed three times with saline solution, then fixed with 100 μL/well of 99% methanol for 15 minutes. Once the biofilm was fixed, 100 μL/well 0.1% Crystal Violet Stain (Sigma; Cat No. C0775-25G) was added for 20 minutes and used as indicator of biofilm formation, followed by three times washing and dry well. To dissolve the crystal violet, 150 μL/well of methanol was added to allow for biofilm MIC analysis.
The biofilm formation was determined by optical density read at 590 nm (OD590). The percentage of biofilm formation was evaluated comparing the average, standard deviation and percentage of confidence of the media control (Row H) against the rest of the plate.
Analysis was performed using Microsoft Excel.

[2] = tested on: Bacillus megaterium ATCC 13632; test: Expanded panel MIC micro-broth dilution; conditions: CaMHB
Experimental: (§1) The collaborator supplied sample as dry material. Angela Kavanagh prepared a stock solution at 10 mg/mL in neat DMSO. The highest concentration tested in the assay was 64 μg/mL for bacteria and 128 μg/mL for fungi. 2% DMSO was the final concentration using 1/20 dilution to achieve these concentrations.
(§2) The compound was serially diluted in Cation-adjusted Mueller Hinton Broth (CaMHB; BD, Cat. No. 212322) two-fold across the wells of polystyrene (PS) 96-well plates (Corning; Cat. No. 3370), plated in duplicate. All plates had flat bottom wells and were covered with low-evaporation lids.
(§3) Bacteria were cultured in CaMHB at 37° C. overnight, then diluted 40-fold and incubated at 37° C. for a further 2-3 h. The resultant mid-log phase cultures were diluted in CaMHB and added to each well of the compound-containing 96-well plates to give a final cell density of 5×10^5 CFU/mL, and a final compound concentration range of 0.03-64 μg/mL. The plates were covered and incubated at 37° C. for 20 h.
(§4) Inhibition of bacterial growth was determined visually, where the MIC was recorded as the lowest compound concentration with no visible growth.

[3] = tested on: Enterococcus faecalis ATCC 29212; test: Expanded panel MIC micro-broth dilution; conditions: ATCC29212, CaMHB, read-out: Cannabidiol MIC (Batch 1)
Experimental: as §1, §2, §3, §4

[4] = tested on: Enterococcus faecium ATCC 35667; test: Expanded panel MIC micro-broth dilution; conditions: CaMHB
Experimental: as §1, §2, §3, §4

[5] = tested on: Staphylococcus epidermidis ATCC 12228; test: Expanded panel MIC micro-broth dilution; conditions: CaMHB
Experimental: as §1, §2, §3, §4

[6] = tested on: Staphylococcus epidermidis ATCC 14990; test: Expanded panel MIC micro-broth dilution; conditions: CaMHB
Experimental: as §1, §2, §3, §4

[7] = tested on: Staphylococcus epidermidis NRS 60; test: Expanded panel MIC micro-broth dilution; conditions: CaMHB
Experimental: as §1, §2, §3, §4

[8] = tested on: Staphylococcus warneri ATCC 27836; test: Expanded panel MIC micro-broth dilution; conditions: CaMHB
Experimental: as §1, §2, §3, §4

[9] = tested on: Streptococcus pneumoniae ATCC 33400; test: Expanded panel MIC micro-broth dilution; conditions: CaMHB
Experimental: as §1, §2, §3, §4

[10] = tested on: Streptococcus pneumoniae ATCC 700677; test: Expanded panel MIC micro-broth dilution; conditions: ATCC700677, CaMHB, read-out: Cannabidiol MIC (Batch 1)
Experimental: as §1, §2, §3, §4

In the case of `C=C(C)C1CCC(C)=CC1c1c(O)cc(CCCCC)cc1O` (stereo not drawn) [Cannabidiol, 2-[3-methyl-6-(1-methylethenyl)-2-cyclohexen-1-yl]-5-pentyl-1,3-benzenediol], the “biofilm MIC” value [1] is reported as 1 to 2 µg/mL, the “biofilm MIC relative to standard vegetative cell MIC” value [1] is reported as “approximately four-fold” and the “inhibition of 48 h biofilm formation” value ([1]; at 2 and 4 μg/mL) is reported as “up to 75%”. The “Biofilm MIC (TSB + 5% Gluc) 07/112/18” value ([1]; first biological replicate, two technical replicates, ≥70% inhibition OD590) was 4 µg/mL, the “Biofilm MIC (TSB + 5% Gluc) 14/112/18” value ([1]; second biological replicate, two technical replicates, ≥70% inhibition OD590) was 2 µg/mL and the “Cannabidiol MIC (Batch 1)” value ([2]; Bacillus megaterium ATCC 13632) was 2 µg/mL. For the same molecule, the MIC ([2]; Priestia megaterium, ATCC13632, Bacillus megaterium ATCC 13632, read-out: Cannabidiol MIC (Batch 1)) was 1 µg/mL (≈ 3.18 µM), the MIC [3] was 2 µg/mL (≈ 6.36 µM) and the “Cannabidiol MIC (Batch 1)” value ([4]; Enterococcus faecium ATCC 35667) was 1 µg/mL. For the same molecule, the MIC ([4]; Enterococcus faecium, ATCC35667, Enterococcus faecium ATCC 35667, read-out: Cannabidiol MIC (Batch 1)) was 0.5 µg/mL (≈ 1.59 µM), the “Cannabidiol MIC (Batch 1)” value ([5]; Staphylococcus epidermidis ATCC 12228) was 2 µg/mL and the MIC ([5]; Staphylococcus epidermidis, ATCC12228, Staphylococcus epidermidis ATCC 12228, read-out: Cannabidiol MIC (Batch 1)) was 1 µg/mL (≈ 3.18 µM). For the same molecule, the “Cannabidiol MIC (Batch 1)” value ([6]; Staphylococcus epidermidis ATCC 14990) was 2 µg/mL, the MIC ([6]; Staphylococcus epidermidis, ATCC14990, Staphylococcus epidermidis ATCC 14990, read-out: Cannabidiol MIC (Batch 1)) was 1 µg/mL (≈ 3.18 µM) and the “Cannabidiol MIC (Batch 1)” value ([7]; Staphylococcus epidermidis NRS 60) was 4 µg/mL and 8 µg/mL. For the same molecule, the MIC ([7]; Staphylococcus epidermidis, NRS60, Staphylococcus epidermidis NRS 60, read-out: Cannabidiol MIC (Batch 1)) was 4 to 8 µg/mL (≈ 12.7 to 25.4 µM), the “Cannabidiol MIC (Batch 1)” value ([8]; Staphylococcus warneri ATCC 27836) was 4 µg/mL and the MIC ([8]; Staphylococcus warneri, ATCC27836, Staphylococcus warneri ATCC 27836, read-out: Cannabidiol MIC (Batch 1)) was 2 µg/mL (≈ 6.36 µM). For the same molecule, the “Cannabidiol MIC (Batch 1)” value ([9]; Streptococcus pneumoniae ATCC 33400) was 2 µg/mL, the MIC ([9]; Streptococcus pneumoniae, ATCC33400, Streptococcus pneumoniae ATCC 33400, read-out: Cannabidiol MIC (Batch 1)) was 1 µg/mL (≈ 3.18 µM) and the MIC [10] was 4 µg/mL (≈ 12.7 µM).
